Data as given in patent publication US8350027B2, “Dual-acting pyrazole antihypertensive agents” (Theravance, Inc., priority 2009, dated 2013).

How the values were obtained:
human AT1 receptor = biological target: T1, human AT1 receptor (Homo sapiens, UniProt P30556); assay: AT1 radioligand binding assay (displacement of [Eu]AngII); details: membranes of CHO-K1 cells expressing cloned human AT1 receptor; values given as lower bounds; read-out: AT1 pKi (converted)
T1 construct: expressed in transfected cells; host or cells: CHO-K1
T1 sequence (P30556 1-359): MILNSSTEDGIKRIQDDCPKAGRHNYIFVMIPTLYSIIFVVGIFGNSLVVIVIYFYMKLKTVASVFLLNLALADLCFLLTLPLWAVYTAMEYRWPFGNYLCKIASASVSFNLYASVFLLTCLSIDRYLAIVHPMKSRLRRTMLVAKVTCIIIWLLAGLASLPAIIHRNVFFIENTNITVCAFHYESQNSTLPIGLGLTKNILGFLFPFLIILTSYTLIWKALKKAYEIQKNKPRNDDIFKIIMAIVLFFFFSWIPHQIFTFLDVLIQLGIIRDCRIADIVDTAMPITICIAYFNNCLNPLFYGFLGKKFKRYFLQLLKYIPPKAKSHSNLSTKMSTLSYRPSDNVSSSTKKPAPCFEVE
Procedure: A. AT1 and AT2 Radioligand Binding Assays
These in vitro assays were used to assess the ability of test compounds to bind to the AT1 and the AT2 receptors.
Membrane Preparation from Cells Expressing Human AT1 or AT2 Receptors
Chinese hamster ovary (CHO-K1) derived cell lines stably expressing the cloned human AT1 or AT2 receptors, respectively, were grown in HAM's-F12 medium supplemented with 10% fetal bovine serum, 10 μg/ml penicillin/streptomycin, and 500 μg/ml geneticin in a 5% CO2 humidified incubator at 37° C. AT2 receptor expressing cells were grown in the additional presence of 100 nM PD123,319 (AT2 antagonist). When cultures reached 80-95% confluence, the cells were washed thoroughly in PBS and lifted with 5 mM EDTA. Cells were pelleted by centrifugation and snap frozen in MeOH-dry ice and stored at −80° C. until further use.
For membrane preparation, cell pellets were resuspended in lysis buffer (25 mM Tris/HCl pH 7.5 at 4° C., 1 mM EDTA, and one tablet of Complete Protease Inhibitor Cocktail Tablets with 2 mM EDTA per 50 mL buffer (Roche cat.#1697498, Roche Molecular Biochemicals, Indianapolis, Ind.)) and homogenized using a tight-fitting Dounce glass homogenizer (10 strokes) on ice. The homogenate was centrifuged at 1000×g, the supernatant was collected and centrifuged at 20,000×g. The final pellet was resuspended in membrane buffer (75 mM Tris/HCl pH 7.5, 12.5 mM MgCl2, 0.3 mM EDTA, 1 mM EGTA, 250 mM sucrose at 4° C.) and homogenized by extrusion through a 20G gauge needle. Protein concentration of the membrane suspension was determined by the method described in Bradford (1976) Anal Biochem. 72:248-54. Membranes were snap frozen in MeOH-dry ice and stored at −80° C. until further use.
Ligand Binding Assay to Determine Compound Affinities for the Human AT1 and AT2 Angiotensin Receptors
Binding assays were performed in 96-well Acrowell filter plates (Pall Inc., cat.#5020) in a total assay volume of 100 μL with 0.2 μg membrane protein for membranes containing the human AT1 receptor, or 2 μg membrane protein for membranes containing the human AT2 receptor in assay buffer (50 mM Tris/HCl pH 7.5 at 20° C., 5 mM MgCl2, 25 μM EDTA, 0.025% BSA). Saturation binding studies for determination of Kd values of the ligand were done using N-terminally Europium-labeled angiotensin-II ([Eu]AngII, H-(Eu-N^1)-Ahx-Asp-Arg-Val-Tyr-Ile-His-Pro-Phe-OH; PerkinElmer, Boston, Mass.) at 8 different concentrations ranging from 0.1 nM to 30 nM. […] Drugs were dissolved to a concentration of 1 mM in DMSO and from there serially diluted into assay buffer. Non-specific binding was determined in the presence of 10 μM unlabeled angiotensin-II. Assays were incubated for 120 minutes in the dark, at room temperature or 37° C., and binding reactions were terminated by rapid filtration through the Acrowell filter plates followed by three washes with 200 μL ice cold wash buffer (50 mM Tris/HCl pH 7.5 at 4° C., 5 mM MgCl2) using a Waters filtration manifold. Plates were tapped dry and incubated with 50 μl DELFIA Enhancement Solution (PerkinElmer cat.#4001-0010) at room temperature for 5 minutes on a shaker. Filter-bound [Eu]AngII was quantitated immediately on a Fusion plate reader (PerkinElmer) using Time Resolved Fluorescence (TRF). Binding data were analyzed by nonlinear regression analysis with the GraphPad Prism Software package (GraphPad Software, Inc., San Diego, Calif.) using the 3-parameter model for one-site competition. The BOTTOM (curve minimum) was fixed to the value for nonspecific binding, as determined in the presence of 10 μM angiotensin II. Ki values for drugs were calculated from observed IC50 values and the Kd value of [Eu]AngII according to the Cheng-Prusoff equation described in Cheng et al. (1973) Biochem Pharmacol. 22 (23):3099-108. Selectivities of test compounds for the AT1 receptor over the AT2 receptor were calculated as the ratio of AT2Ki/AT1Ki. […]

NEP enzyme = biological target: T2, NEP enzyme (Homo sapiens, UniProt P08473); assay: NEP enzyme inhibition assay (fluorogenic peptide substrate); assay type: biochemical; details: values given as lower bounds; * = prodrugs, may not exhibit NEP activity in an in vitro assay; read-out: NEP pIC50 (converted)
T2 construct: purchased R&D Systems, Minneapolis, Minn; 1182-ZN
T2 sequence (P08473 52-750 limits assumed): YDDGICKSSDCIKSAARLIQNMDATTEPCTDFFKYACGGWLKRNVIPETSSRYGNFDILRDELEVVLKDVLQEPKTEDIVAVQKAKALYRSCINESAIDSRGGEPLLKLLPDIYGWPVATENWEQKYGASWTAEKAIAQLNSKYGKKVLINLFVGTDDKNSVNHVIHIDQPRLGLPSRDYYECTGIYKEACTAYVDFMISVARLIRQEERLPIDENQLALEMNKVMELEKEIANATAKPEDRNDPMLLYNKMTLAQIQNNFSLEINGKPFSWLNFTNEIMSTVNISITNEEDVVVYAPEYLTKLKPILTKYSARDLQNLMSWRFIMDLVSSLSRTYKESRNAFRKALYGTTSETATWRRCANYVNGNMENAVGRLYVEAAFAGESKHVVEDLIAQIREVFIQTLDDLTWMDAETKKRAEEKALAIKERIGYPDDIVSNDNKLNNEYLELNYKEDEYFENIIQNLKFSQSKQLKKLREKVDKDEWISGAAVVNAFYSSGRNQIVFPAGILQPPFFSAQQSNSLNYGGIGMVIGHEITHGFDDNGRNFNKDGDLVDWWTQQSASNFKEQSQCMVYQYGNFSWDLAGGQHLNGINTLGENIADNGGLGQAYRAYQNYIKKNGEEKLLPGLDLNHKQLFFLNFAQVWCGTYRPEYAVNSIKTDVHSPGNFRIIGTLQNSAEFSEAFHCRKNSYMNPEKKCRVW
Procedure: B. In Vitro Assays for the Quantitation of Inhibitor Potencies (IC50) at Human and Rat NEP, and Human ACE
The inhibitory activities of compounds at human and rat NEP and human ACE were determined using in vitro assays as described below.
Recombinant human NEP and recombinant human ACE were obtained commercially (R&D Systems, Minneapolis, Minn., catalog numbers 1182-ZN and 929-ZN, respectively). The fluorogenic peptide substrate Mca-BK2 (Mca-Arg-Pro-Pro-Gly-Phe-Ser-Ala-Phe-Lys(Dnp)-OH; Johnson et al. (2000) Anal. Biochem. 286: 112-118) was used for the human NEP and ACE assays, and Mca-RRL (Mca-DArg-Arg-Leu-(Dnp)-OH; Medeiros et al. (1997) Braz. J. Med. Biol. Res. 30:1157-1162) was used for the rat NEP assay (both from Anaspec, San Jose, Calif.).
The assays were performed in 384-well white opaque plates at room temperature using the respective fluorogenic peptides at a concentration of 10 μM in assay buffer (50 mM Tris/HCl at 25° C., 100 mM NaCl, 0.01% Tween-20, 1 μM Zn, 0.025% BSA). […] The rat NEP enzyme preparation was used at a concentration that yielded quantitative proteolysis of 3 μM of Mca-RRL within 20 minutes at room temperature.
Test compounds were diluted to 12 concentrations from 10 μM to 20 pM in Assay Buffer. Assays were started by adding 25 μL of enzyme to 12.5 μL of test compound at each of the 12 concentrations. Test compounds were allowed to equilibrate with the enzyme for 10 minutes before 12.5 μL of the fluorogenic substrates were added to initiate the reaction. Reactions were terminated by the addition of 10 μL of 3.6% glacial acetic acid after 20 minutes of incubation.
For sulfhydryl-containing test compounds, the test compounds may be diluted in Assay Buffer containing a 400 μM concentration of tris(2-carboxyethyl)phosphine hydrochloride (Thermo Scientific, Rockford, Ill.) (TCEP). The test compounds are then incubated for 40 minutes at room temperature (to allow for dimer cleavage) before adding the enzyme. Test compounds are then allowed to equilibrate with the enzyme for 20 minutes before adding the fluorogenic substrates. Reactions are terminated as above.
Plates were read on a fluorometer with excitation and emission wavelengths set to 320 nm and 405 nm, respectively. Raw data (relative fluorescence units) were normalized to % activity from the average high readings (no inhibition, 100% enzyme activity) and average low readings (full inhibition, highest inhibitor concentration, 0% enzyme activity) using three standard NEP and ACE inhibitors, respectively. Nonlinear regression of the normalized data was performed using a one site competition model (GraphPad Software, Inc., San Diego, Calif.). Data were reported as pIC50 values.

Structure (SMILES)	Ki (human AT1 receptor)	IC50 (NEP enzyme)
CCCc1cc(C(=O)N[C@H](Cc2ccccc2)[C@@H](O)C(=O)O)nn1Cc1ccc(-c2ccccc2-c2nnn[nH]2)cc1 [Example 1, (2R,3R)-3-(1-((2′-(1H-tetrazol-5-yl)biphenyl-4-yl)methyl)-5-propyl-1H-pyrazole-3-carboxamido)-2-hydroxy-4-phenylbutanoic Acid]	≤ 10 nM	≤ 1000 nM
CCCc1cc(C(=O)N[C@@H](CC(=O)O)Cc2ccccc2)nn1Cc1ccc(-c2ccccc2-c2nnn[nH]2)cc1 [Example 2, (R)-4-Phenyl-3-({5-propyl-1-[2′-(1H-tetrazol-5-yl)-biphenyl-4-ylmethyl]-1H-pyrazole-3-carbonyl}amino)butyric Acid]	≤ 10 nM	≤ 10000 nM
CCOc1cc(C(=O)N[C@@H](CS)Cc2ccccc2)nn1Cc1ccc(-c2ccccc2-c2nnn[nH]2)cc1F [Example 3-1, 5-Ethoxy-1-[3-fluoro-2′-(1H-tetrazol-5-yl)biphenyl-4-ylmethyl]-1H-pyrazole-3-carboxylic acid ((R)-1-benzyl-2-mercaptoethyl)amide]	≤ 10 nM	≤ 100 nM
CCCc1cc(C(=O)N[C@@H](CS)Cc2ccccc2)nn1Cc1ccc(-c2ccccc2-c2nnn[nH]2)cc1F [Example 3-2, 1-[3-Fluoro-2′-(1H-tetrazol-5-yl)biphenyl-4-ylmethyl]-5-propyl-1H-pyrazole-3-carboxylic acid ((R)-1-benzyl-2-mercaptoethyl)amide]	≤ 10 nM	≤ 100 nM
CCCc1cc(C(=O)N[C@@H](CS)CC(C)C)nn1Cc1ccc(-c2ccccc2-c2nnn[nH]2)cc1F [Example 3-3, 1-[3-Fluoro-2′-(1H-tetrazol-5-yl)biphenyl-4-ylmethyl]-5-propyl-1H-pyrazole-3-carboxylic acid ((R)-1-mercaptomethyl-3-methylbutyl)amide]	≤ 100 nM	≤ 100 nM
CCOc1cc(C(=O)N[C@@H](CS)Cc2ccccc2)nn1Cc1ccc(-c2ccccc2-c2nnn[nH]2)cc1 [Example 3-4, 5-Ethoxy-1-[2′-(1H-tetrazol-5-yl)biphenyl-4-ylmethyl]-1H-pyrazole-3-carboxylic acid ((R)-1-benzyl-2-mercaptoethyl)amide]	≤ 10 nM	≤ 100 nM
CCOc1cc(C(=O)N[C@@H](CS)CC(C)C)nn1Cc1ccc(-c2ccccc2-c2nnn[nH]2)cc1 [Example 3-5, 5-Ethoxy-1-[2′-(1H-tetrazol-5-yl)biphenyl-4-ylmethyl]-1H-pyrazole-3-carboxylic acid ((R)-1-mercaptomethyl-3-methylbutyl)amide]	≤ 100 nM	≤ 100 nM
CCCc1cc(C(=O)N[C@@H](CS)Cc2ccccc2)nn1Cc1ccc(-c2ccccc2-c2nnn[nH]2)cc1 [Example 3-6, 5-Propyl-1-[2′-(1H-tetrazol-5-yl)biphenyl-4-ylmethyl]-1H-pyrazole-3-carboxylic acid ((R)-1-benzyl-2-mercaptoethyl)amide]	≤ 10 nM	≤ 100 nM
CCCc1cc(C(=O)N[C@@H](CS)CC(C)C)nn1Cc1ccc(-c2ccccc2-c2nnn[nH]2)cc1 [Example 3-7, 5-Propyl-1-[2′-(1H-tetrazol-5-yl)biphenyl-4-ylmethyl]-1H-pyrazole-3-carboxylic acid ((R)-1-mercaptomethyl-3-methylbutyl)amide]	≤ 10 nM	≤ 100 nM
CCOc1cc(C(=O)N[C@H](Cc2ccccc2)[C@@H](O)C(=O)O)nn1Cc1ccc(-c2ccccc2-c2nnn[nH]2)cc1F [Example 3-8, (2R,3R)-3-({5-Ethoxy-1-[3-fluoro-2′-(1H-tetrazol-5-yl)biphenyl-4-ylmethyl]-1H-pyrazole-3-carbonyl}amino)-2-hydroxy-4-phenylbutyric acid]	≤ 100 nM	≤ 1000 nM
CCOc1cc(C(=O)N[C@H](Cc2ccccc2)[C@@H](O)C(=O)O)nn1Cc1ccc(-c2ccccc2-c2nnn[nH]2)cc1 [Example 3-9, (2R,3R)-3-({5-Ethoxy-1-[2′-(1H-tetrazol-5-yl)biphenyl-4-ylmethyl]-1H-pyrazole-3-carbonyl}amino)-2-hydroxy-4-phenylbutyric acid]	≤ 100 nM	≤ 1000 nM
CCCc1cc(C(=O)N[C@H](Cc2ccccc2)[C@@H](O)C(=O)O)nn1Cc1ccc(-c2ccccc2-c2nnn[nH]2)c(F)c1 [Example 3-10, (2R,3R)-3-(1-((2-Fluoro-2′-(1H-tetrazol-5-yl)biphenyl-4-yl)methyl)-5-propyl-1H-pyrazole-3-carboxamido)-2-hydroxy-4-phenylbutanoic acid]	≤ 10 nM	≤ 1000 nM
CCCc1cc(C(=O)N[C@@H](CS)Cc2ccccc2)nn1Cc1ccc(-c2ccccc2-c2nnn[nH]2)c(F)c1 [Example 3-11, 1-((2-Fluoro-2′-(1H-tetrazol-5-yl)biphenyl-4-yl)methyl)-N-((R)-1-mercapto-3-phenylpropan-2-yl)-5-propyl-1H-pyrazole-3-carboxamide]	≤ 10 nM	≤ 100 nM
